{"source": "paper PMC7008598", "about": "(Science signaling, 2019)", "molecules": {"B1": {"name": "FLAG-tagged TNFR1 PLAD (residues 30 to 82) (domain or fragment, UniProt P19438 30-82, looked up)", "chain": "LVPHLGDREKRDSVCPQGKYIHPQNNSICCTKCHKGTYLYNDCPGPGQDTDCR"}, "B2": {"name": "soluble FLAG-tagged lymphotoxin-α (LTα) (ligand, UniProt P01374 35-205, looked up)", "chain": "LPGVGLTPSAAQTARQHPKMHLAHSTLKPAAHLIGDPSKQNSLLWRANTDRAFLQDGFSLSNNSLLVPTSGIYFVYSQVVFSGKAYSPKATSSPLYLAHEVQLFSSQYPFHVPLLSSQKMVYPGLQEPWLHSMYHGAAFQLTQGDQLSTHTDGIPHLVLSPSTVFFGAFAL"}}, "key": {"TNFR1 ECD dimer": {"target": "T1, TNFR1 ECD dimer (Homo sapiens, UniProt P19438)", "T1 sequence (P19438 30-211 limits assumed)": "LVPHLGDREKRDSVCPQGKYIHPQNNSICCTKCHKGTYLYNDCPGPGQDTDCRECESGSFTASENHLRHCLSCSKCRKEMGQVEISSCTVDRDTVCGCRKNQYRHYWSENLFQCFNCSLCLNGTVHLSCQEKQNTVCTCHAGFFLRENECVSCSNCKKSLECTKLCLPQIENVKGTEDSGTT", "test": "Native gel characterization of soluble TNFR1 ECD dimer", "format": "biochemical", "details": "compounds 200 μM"}, "human TNFR1 ECD": {"target": "T2, human TNFR1 ECD (Homo sapiens, UniProt P19438)", "T2 sequence (P19438 30-211 limits assumed)": "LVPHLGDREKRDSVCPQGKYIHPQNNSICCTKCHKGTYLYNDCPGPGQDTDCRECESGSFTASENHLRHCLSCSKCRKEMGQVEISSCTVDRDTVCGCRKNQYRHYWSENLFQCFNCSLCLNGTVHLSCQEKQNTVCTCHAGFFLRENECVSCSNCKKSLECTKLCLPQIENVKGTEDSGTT", "test": "SPR binding assay on immobilized TNFR1 ECD"}, "[1]": {"test_system": "TNFR1-stimulated NF-κB activation", "test": "LTα-induced NF-κB activation luciferase assay in HEK293 cells", "format": "cell-based, human"}, "TNFR1 PLAD dimer": {"target": "T3, TNFR1 PLAD dimer (Homo sapiens, UniProt P19438)", "T3 sequence (P19438 30-82)": "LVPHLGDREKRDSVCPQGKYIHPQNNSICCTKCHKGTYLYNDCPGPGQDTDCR", "test": "Native gel characterization of soluble TNFR1 PLAD dimer", "details": "compounds 200 μM"}, "[2]": {"test_system": "TNFR1-stimulated NF-κB activation", "details": "read-out: absolute IC50, inhibition of ligand-induced NF-κB activation; cited from earlier work"}, "[3]": {"test_system": "basal NF-κB activation in TNFR1 KO HAP1 cells", "test": "Basal NF-κB activation in TNFR1 KO HAP1 cells", "format": "cell-based, human"}, "[4]": {"test_system": "TRADD-induced NF-κB activation", "test": "TRADD-induced NF-κB activation in HEK293 cells", "format": "cell-based, human", "details": "HEK293, TRADD overexpression, 0.1 to 200 μM"}, "native gel or EMSA": {"target": "the molecule itself", "test": "native gel or EMSA"}, "[5]": {"target": "T4, recombinant human TNFR1 extracellular domain (human, UniProt P19438 30-211)", "T4 sequence (looked up)": "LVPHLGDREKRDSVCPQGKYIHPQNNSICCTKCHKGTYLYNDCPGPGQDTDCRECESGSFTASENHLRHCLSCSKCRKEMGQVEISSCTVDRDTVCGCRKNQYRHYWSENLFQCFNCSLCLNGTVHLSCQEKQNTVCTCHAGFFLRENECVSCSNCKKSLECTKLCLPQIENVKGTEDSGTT", "test": "SPR"}, "[6]": {"target": "T5, soluble FLAG-tagged lymphotoxin-α (LTα), P01374", "T5 chain": "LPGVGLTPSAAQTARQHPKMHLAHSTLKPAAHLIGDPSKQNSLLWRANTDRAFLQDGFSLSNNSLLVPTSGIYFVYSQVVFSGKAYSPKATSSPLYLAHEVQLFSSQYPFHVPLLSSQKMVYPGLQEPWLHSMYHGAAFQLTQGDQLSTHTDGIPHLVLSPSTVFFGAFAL", "test": "native gel or EMSA", "details": "remark: other sources report otherwise"}}}
{"molecule": "COc1cc(C(=O)NS(=O)(=O)c2ccccc2C)ccc1Cc1cn(C)c2ccc(NC(=O)OC3CCCC3)cc12", "note": "[zafirlukast]", "values": [{"measurement": "disruption of TNFR1 ECD dimer", "setting": "TNFR1 ECD dimer", "result": "disrupted"}, {"measurement": "Kd", "setting": "human TNFR1 ECD", "result": 86, "unit": "µM"}, {"measurement": "noncompetitive binding of LTα and compound to TNFR1 ECD", "setting": "human TNFR1 ECD; SPR, LTα 50 nM, compound 200 μM", "result": "equal to the sum of the individual response"}, {"measurement": "LTα binding affinity to TNFR1 ECD in the presence of compound", "setting": "human TNFR1 ECD; SPR, compound at saturating 200 μM", "result": "essentially unchanged"}, {"measurement": "competition with H398 for binding TNFR1", "setting": "human TNFR1 ECD; SPR, compounds 200 μM, H398 at 1.0 nM", "result": "did not compete with H398"}, {"measurement": "extent of inhibition of NF-κB activation", "setting": "[1]; HEK293, LTα, maximal inhibition", "result": 55, "unit": "%"}, {"measurement": "IC50 for inhibition of NF-κB in the presence of H398", "setting": "[1]; presence of H398 antibody", "result": "unchanged"}, {"measurement": "disruption of soluble PLAD dimers", "setting": "TNFR1 PLAD dimer", "result": "disrupted"}, {"measurement": "IC50", "setting": "[2]", "result": 50, "unit": "µM"}, {"measurement": "effect on basal level of NF-κB activation in TNFR1 KO cells (specificity)", "setting": "[3]", "result": "almost no effect on basal activity"}, {"measurement": "effect on TRADD-induced NF-κB activation", "setting": "[4]", "result": "little effect"}]}
{"molecule": "B1", "values": [{"measurement": "stoichiometry N", "setting": "native gel or EMSA", "result": 2}]}
{"molecule": "B2", "values": [{"measurement": "Kd", "setting": "[5]", "result": 0.037, "unit": "µM"}, {"measurement": "stoichiometry N", "setting": "[6]", "result": 3}]}
